The target in one assay is T1, integrin α4β7 (Homo sapiens, UniProt P13612+P26010).
T1 construct: lymphoma cell strain RPMI-8866 of human B cells, known to express integrin α4β7; endogenous in cells; host or cells: RPMI-8866, human B-cell lymphoma line
T1 sequence (P13612 34-1032): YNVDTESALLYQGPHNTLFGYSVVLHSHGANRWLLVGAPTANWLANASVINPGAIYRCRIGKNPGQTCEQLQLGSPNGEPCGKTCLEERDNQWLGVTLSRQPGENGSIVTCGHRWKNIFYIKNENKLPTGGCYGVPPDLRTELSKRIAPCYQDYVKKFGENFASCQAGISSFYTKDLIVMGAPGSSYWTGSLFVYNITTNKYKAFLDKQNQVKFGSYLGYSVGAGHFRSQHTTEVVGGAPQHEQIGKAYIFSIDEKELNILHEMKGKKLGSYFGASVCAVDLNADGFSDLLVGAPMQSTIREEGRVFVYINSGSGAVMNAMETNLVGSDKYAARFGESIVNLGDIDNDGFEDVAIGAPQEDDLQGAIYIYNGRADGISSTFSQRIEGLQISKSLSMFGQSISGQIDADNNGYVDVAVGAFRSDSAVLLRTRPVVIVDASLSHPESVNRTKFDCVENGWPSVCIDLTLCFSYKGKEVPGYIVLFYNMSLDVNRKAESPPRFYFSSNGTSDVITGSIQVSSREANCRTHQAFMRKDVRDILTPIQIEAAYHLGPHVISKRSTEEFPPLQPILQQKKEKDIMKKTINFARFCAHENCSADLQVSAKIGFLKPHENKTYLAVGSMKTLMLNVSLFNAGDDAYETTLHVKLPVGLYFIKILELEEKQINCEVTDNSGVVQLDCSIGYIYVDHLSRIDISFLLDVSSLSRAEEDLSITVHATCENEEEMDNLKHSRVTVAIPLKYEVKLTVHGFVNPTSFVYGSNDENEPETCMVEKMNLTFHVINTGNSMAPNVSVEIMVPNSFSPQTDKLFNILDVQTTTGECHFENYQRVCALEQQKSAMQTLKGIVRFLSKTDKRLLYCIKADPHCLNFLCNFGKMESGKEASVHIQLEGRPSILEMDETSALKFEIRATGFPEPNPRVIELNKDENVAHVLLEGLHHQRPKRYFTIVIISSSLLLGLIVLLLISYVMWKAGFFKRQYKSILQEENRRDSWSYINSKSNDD
T1 sequence (P26010 20-798): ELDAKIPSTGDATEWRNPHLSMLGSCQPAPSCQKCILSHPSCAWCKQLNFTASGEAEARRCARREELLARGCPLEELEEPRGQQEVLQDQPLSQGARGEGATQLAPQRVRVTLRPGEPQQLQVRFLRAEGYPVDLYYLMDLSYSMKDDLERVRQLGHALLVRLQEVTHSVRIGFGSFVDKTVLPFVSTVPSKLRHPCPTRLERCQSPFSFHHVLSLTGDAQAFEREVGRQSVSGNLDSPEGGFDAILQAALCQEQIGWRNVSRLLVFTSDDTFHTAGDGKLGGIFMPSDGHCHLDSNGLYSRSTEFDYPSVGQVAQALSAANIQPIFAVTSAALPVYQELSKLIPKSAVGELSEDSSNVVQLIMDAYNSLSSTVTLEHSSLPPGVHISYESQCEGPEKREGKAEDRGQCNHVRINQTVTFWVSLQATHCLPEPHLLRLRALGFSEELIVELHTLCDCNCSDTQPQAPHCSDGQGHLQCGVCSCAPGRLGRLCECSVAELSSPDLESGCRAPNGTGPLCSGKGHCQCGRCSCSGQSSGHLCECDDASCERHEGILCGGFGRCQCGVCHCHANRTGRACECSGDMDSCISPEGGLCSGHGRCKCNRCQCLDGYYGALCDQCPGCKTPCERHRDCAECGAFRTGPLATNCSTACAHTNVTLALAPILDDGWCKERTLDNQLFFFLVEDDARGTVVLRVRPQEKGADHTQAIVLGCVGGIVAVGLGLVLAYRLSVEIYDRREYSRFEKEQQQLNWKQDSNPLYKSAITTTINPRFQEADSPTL
In words: VCAM antagonistic activity (VCAM-1/α4β7 binding assay), RPMI-8866 cells binding to VCAM-1. It is filed as cell-based. As to conditions: RPMI-8866 cells binding to recombinant human VCAM-1, binding buffer containing 4 mM MnCl2, 30 minutes at room temperature. On the procedure: VCAM Antagonistic Activity (VCAM-1/α4β7 Binding Assay)
The capacity of a test substance antagonistic to the binding of lymphoma cell strain RPMI-8866 of human B cells, known to express integrin α4β7, to VCAM-1 was determined.
(§1) 100 μl/well of a solution (500 ng/ml) of recombinant human VCAM-1 (R & D systems) solution diluted with buffer A (0.1 M NaHCO3, pH 9.6) was added to a micro titer plate having 96 wells (Nunc Maxisorp). After the incubation at 4° C. overnight, unbound VCAM-1 was removed by washing once with PBS. After completion of the washing, a buffer (buffer B) obtained by diluting Block Ace (Dainippon Pharmaceutical Co., Ltd.) with PBS to ¼ concentration was added in an amount of 150 μl/well. After the incubation at room temperature for 1 hour, buffer B was removed and the plate was washed with PBS once.
RPMI-8866 cells were incubated in Dulbecco modified Eagle medium containing 10 μg/ml of Calcein-AM (Wako Pure Chemical Industries, Ltd.) (SIGMA, hereinafter referred to as “DMEM”) at 37° C. for 30 minutes to label with fluorescence. The cells were again suspended in a binding buffer (20 mM HEPES, DMEM containing 0.1% BSA) containing 4 mM of MnCl2.
(§2) 50 μl of a test substance of various concentrations obtained by the dilution with the binding buffer was added to the plate. Immediately thereafter, 50 μl (final volume: 100 μl/well) of the fluorescent RPMI-8866 cells (4×10^6 cells/ml) were added thereto, and they were incubated at room temperature for 30 minutes. After the shaking on a plate shaker (IKA MTS-4) at 800 rpm for 30 seconds, the solution was immediately removed to remove the unbound cells. The fluorescence quantity of the bound cells remaining in the wells was determined with a fluorescent plate reader (Wallac 1420 ARVO multi-label counter) (filter excitation wave length: 485 nm, emission wave length: 535 nm). The fluorescent strength thus obtained is proportional to the number of RPMI-8866 cells bound to VCAM-1 and remaining on the plate. The binding rate of each test material in various concentrations was determined while the fluorescent strength of the test material-free well was determined to be 100%. The concentration IC50 for the 50% binding inhibition was calculated.

A further assay has as its target T2, integrin α4β1 (Homo sapiens, UniProt P05556+P13612).
T2 construct: cell strain Jurkat (ATCC TIB-152) of human T cells, known to express integrin α4β1; endogenous in cells; host or cells: Jurkat (ATCC TIB-152), human T cells
In words: VCAM antagonist activity (VCAM-1/α4β1 binding assay), Jurkat cells binding to VCAM-1. The format is cell-based. As to conditions: Jurkat cells binding to recombinant human VCAM-1, 30 minutes at room temperature; read-out: VCAM antagonistic activity IC50, α4β1. On the procedure:
VCAM Antagonist Activity (VCAM-1/α4β1 Binding Assay)
The capacity of a test substance antagonistic to the binding of cell strain Jurkat (ATCC TIB-152) of human T cells, known to express integrin α4β1, to VCAM-1 was determined.
as §1
Jurkat cells were washed with Dulbecco modified Eagle medium (SIGMA, hereinafter referred to as “DMEM”) twice and then incubated in DMEM containing 10 μg/ml of Calcein-AM (Wako Pure Chemical Industries, Ltd.) at 37° C. in dark place for 30 minutes to label with fluorescence. The cells were again suspended in a binding buffer (20 mM HEPES, DMEM containing 0.1% BSA).
as §2, with “Jurkat” for “RPMI-8866”

T2 sequence (P05556 21-798, one chain of several): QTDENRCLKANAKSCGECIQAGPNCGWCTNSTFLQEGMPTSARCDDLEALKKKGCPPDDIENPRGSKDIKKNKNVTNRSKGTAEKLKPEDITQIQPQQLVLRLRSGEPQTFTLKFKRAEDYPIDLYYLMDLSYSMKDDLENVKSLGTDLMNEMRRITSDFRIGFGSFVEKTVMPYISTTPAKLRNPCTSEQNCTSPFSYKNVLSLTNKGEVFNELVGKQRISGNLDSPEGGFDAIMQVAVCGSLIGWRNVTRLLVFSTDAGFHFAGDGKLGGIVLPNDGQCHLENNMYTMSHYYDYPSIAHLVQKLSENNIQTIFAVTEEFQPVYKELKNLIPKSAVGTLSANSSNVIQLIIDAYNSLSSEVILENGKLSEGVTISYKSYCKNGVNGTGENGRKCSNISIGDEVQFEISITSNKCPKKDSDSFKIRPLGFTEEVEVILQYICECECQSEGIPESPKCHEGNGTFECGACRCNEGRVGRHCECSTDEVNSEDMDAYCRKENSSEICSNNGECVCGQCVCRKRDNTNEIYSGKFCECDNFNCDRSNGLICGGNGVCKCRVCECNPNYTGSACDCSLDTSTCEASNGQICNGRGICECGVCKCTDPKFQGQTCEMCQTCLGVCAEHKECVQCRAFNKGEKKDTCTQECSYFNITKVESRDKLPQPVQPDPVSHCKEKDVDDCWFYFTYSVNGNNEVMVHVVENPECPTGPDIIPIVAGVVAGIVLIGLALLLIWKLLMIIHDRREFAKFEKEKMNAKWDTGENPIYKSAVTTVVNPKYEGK

A word on the IC50: it is the concentration needed to halve the response being measured. `Cn1c(=O)c(-c2ccc(C[C@H](NC(=O)c3c(Cl)cccc3Cl)C(=O)O)cc2)cc2ccccc21` [Example 1, (2S)-2-[(2,6-dichlorobenzoyl)amino]-3-[4-(1-methyl-2-oxo-1,2-dihydro-3-quinolinyl)phenyl]propionic acid]: the IC50 at integrin α4β7 amounted to 90 nM; at integrin α4β1 it was 620 nM. On the same counts, the results for `O=C(N[C@@H](Cc1ccc(-n2ncc3ccccc3c2=O)cc1)C(=O)O)c1c(Cl)cccc1Cl` [Example 21] are 2.4 nM and 190 nM.

For `COc1c(-c2ccc(C[C@H](NC(=O)c3c(Cl)cccc3Cl)C(=O)O)cc2)c(=O)n(C)c2ccc(Cl)cc12` [Example 44], the IC50 at integrin α4β7 turned out to be 11 nM; on integrin α4β1 it was 168 nM. Take `CCCc1c(-c2ccc(C[C@H](NC(=O)c3c(Cl)cccc3Cl)C(=O)O)cc2)c(=O)n(C)c2ccccc12` [Example 45]: the IC50 was 7.3 nM at integrin α4β7 and 37 nM on integrin α4β1. `CCCOc1c(-c2ccc(C[C@H](NC(=O)c3c(Cl)cccc3Cl)C(=O)O)cc2)c(=O)n(C)c2ccccc12` [Example 40]: the half-maximal inhibitory concentration (IC50) is 6.5 nM at integrin α4β7 and 115 nM at integrin α4β1.

Regarding `Cc1c(-c2ccc(C[C@H](NC(=O)c3c(Cl)cccc3Cl)C(=O)O)cc2)c(=O)n(C)c2ccccc12` [Example 42], the IC50 stood at 4.1 nM on integrin α4β7 and 52 nM at integrin α4β1. `Cn1c(=O)c(-c2ccc(C[C@H](NC(=O)c3c(Cl)cccc3Cl)C(=O)O)cc2)cc2cc(S(C)(=O)=O)ccc21` [Example 30]: the results for the IC50 on integrin α4β7 and on integrin α4β1 were 3.9 nM and 64 nM, respectively.

Turning to `CCn1c(=O)c(-c2ccc(C[C@H](NC(=O)c3c(Cl)cccc3Cl)C(=O)O)cc2)c(C)c2ccccc21` [Example 43], the IC50 at integrin α4β7 worked out at 10 nM; on integrin α4β1 it was 178 nM. For the compound `O=C(N[C@@H](Cc1ccc(N2Cc3ccccc3CC2=O)cc1)C(=O)O)c1c(Cl)cccc1Cl` [Example 47], the IC50 at integrin α4β7 was determined as 97 nM.

Consider `Cn1c(=O)c(-c2ccc(C[C@H](NC(=O)c3c(Cl)cccc3Cl)C(=O)O)cc2)cc2cc([N+](C)(C)C)ccc21` [Example 14], for which the IC50 at integrin α4β7 was determined as 3.3 nM; on integrin α4β1 it was 150 nM.

Turning to `CCC(CC)(C(=O)N[C@@H](Cc1ccc(N2C(=O)c3cccc(C)c3C2=O)cc1)C(=O)O)C(=O)N1CCCC1` [Example 26], the IC50 at integrin α4β7 was 44 nM. Consider `CCOc1c(-c2ccc(C[C@H](NC(=O)c3c(Cl)cccc3Cl)C(=O)O)cc2)c(=O)n(C)c2ccccc12` [Example 41], for which the IC50 was 4.5 nM at integrin α4β7 and 74 nM on integrin α4β1.

`Cn1c(=O)c(-c2ccc(C[C@H](NC(=O)c3c(Cl)cccc3Cl)C(=O)O)cc2)cc2cc(O)ccc21` [Example 33]: the results for the IC50 at integrin α4β7 and at integrin α4β1 were 21 nM and 255 nM, respectively. As to `O=C(N[C@@H](Cc1ccc(N2C(=O)c3cccc(=O)n3C2=O)cc1)C(=O)O)c1c(Cl)cccc1Cl` [Example 22], the half-maximal inhibitory concentration (IC50) on integrin α4β7 was 150 nM. Consider `Cc1cn(-c2ccc(C[C@H](NC(=O)c3c(Cl)cccc3Cl)C(=O)O)cc2)c(=O)c2ccccc12` [Example 23], for which the IC50 at integrin α4β7 was found to be 35 nM.

`CCC(CC)(C(=O)N[C@@H](Cc1ccc(-c2cc3ccccc3n(C)c2=O)cc1)C(=O)O)C(=O)N1CCCC1` [Example 8, (2S)-2-[[2-ethyl-2-(1-pyrrolidinecarbonyl)butanoyl]amino]-3-[4-(1-methyl-2-oxo-1,2-dihydro-3-quinolinyl)phenyl]propionic acid]: the IC50 at integrin α4β7 amounted to 18 nM; on integrin α4β1, 320 nM. The corresponding values for `COc1c(-c2ccc(C[C@H](NC(=O)c3c(Cl)cccc3Cl)C(=O)O)cc2)c(=O)n(C)c2ccccc12` [Example 6, (2S)-2-[(2,6-dichlorobenzoyl)amino]-3-[4-(4-methoxy-1-methyl-2-oxo-1,2-dihydro-3-quinolinyl)phenyl]propionic acid] are 3.5 nM and 44 nM. Consider `Cn1c(=O)c(-c2ccc(C[C@H](NC(=O)c3c(Cl)cc(NS(C)(=O)=O)cc3Cl)C(=O)O)cc2)cc2ccccc21` [Example 31], for which the IC50 was 3 nM at integrin α4β7 and 47 nM on integrin α4β1.

Turning to `CC1CN(c2ccc(C[C@H](NC(=O)c3c(Cl)cccc3Cl)C(=O)O)cc2)C(=O)c2ccccc21` (some centres unmarked) [Example 46], the IC50 on integrin α4β7 turned out to be 67 nM. For `Cn1c(=O)c(-c2ccc(C[C@H](NC(=O)c3c(Cl)ccnc3Cl)C(=O)O)cc2)cc2ccccc21` [Example 19], the IC50 on integrin α4β7 stood at 11 nM; at integrin α4β1, 290 nM.

For the origin of these results see US7884204B2, “Phenylalanine derivatives” (Ajinomoto Co., Inc., priority 2001, dated 2011).
